Results reported in PMC12557365 (Journal of Medicinal Chemistry, 2025).
Values joined by “and” are separate entries in the source; they are usually repeats but may differ in a detail not shown here. Identical values can stand only once. “Also recorded” adds a separate entry of the source. Like-named read-outs stand apart in the source and are kept apart here.

What was measured:
[1] = in vivo; conditions: male, Sprague-Dawley, rat
[2] = test system: SARS-CoV-2 Gamma strain (hCoV-19/Japan/TY7-501/2021); assay: microbe, parasite or virus in culture; format: cell-based
[3] = test system: Human Cathepsin B/D/G/L; format: biochemical
[4] = test system: Human Chymotrypsin; format: biochemical
[5] = target: Human Caspase 2 (Homo sapiens, UniProt P42575); assay: biochemical
[6] = in vitro; conditions: both, human, microsomes
[7] = in vitro; conditions: African green monkey
[8] = test system: SARS-CoV-2 Gamma strain (hCoV-19/Japan/TY7-501/2021); set-up: species or system BALB/cAJcl mice; conditions: mouse, in vivo
[9] = in vivo; conditions: female, cynomolgus monkey, iv, 0.1 mg/kg
[10] = test system: SARS-CoV-2 hCoV-19/Japan/TY/WK-521 strain; assay: microbe, parasite or virus in culture; format: cell-based; conditions: Severe acute respiratory syndrome coronavirus 2, HEK-293T, read-out: HEK 293T-AT EC50
[11] = test system: HCoV-OC43; assay: microbe, parasite or virus in culture; format: cell-based; conditions: Betacoronavirus 1, OC43, MRC5, read-out: EC50 HCoV-OC43
[12] = test system: SARS-CoV-2; assay: microbe, parasite or virus in culture; format: cell-based; conditions: Severe acute respiratory syndrome coronavirus 2, A549
[13] = in vivo; conditions: male, beagle, dog, iv, 0.1 mg/kg
[14] = test system: MERS-CoV; assay: microbe, parasite or virus in culture; format: cell-based; conditions: Middle East respiratory syndrome-related coronavirus, VeroE6/TMPRSS2, read-out: EC50 MERS-CoV
[15] = target: Human Thrombin (Homo sapiens, UniProt P00734); assay: biochemical
[16] = test system: HCoV-229E; assay: microbe, parasite or virus in culture; format: cell-based; conditions: read-out: EC50 HCoV-229E
[17] = in vivo
[18] = target: T1, P-gp (Homo sapiens, UniProt P08183); assay: in vitro; conditions: LLC-PK1
[19] = test system: SARS-CoV; assay: microbe, parasite or virus in culture; format: cell-based; conditions: Severe acute respiratory syndrome coronavirus, VeroE6/TMPRSS2, read-out: EC50 SARS-CoV
[20] = in vitro; conditions: male, rat, microsomes
[21] = test system: SARS-CoV-2 Omicron strains; assay: microbe, parasite or virus in culture; format: cell-based; conditions: Severe acute respiratory syndrome coronavirus 2, Epithelial cell
[22] = pig
[23] = in vitro; conditions: pig, LLC-PK1
[24] = target: HIV-1 Protease (Human immunodeficiency virus type 1 group M subtype B, UniProt P04585); assay: biochemical
[25] = target: T1, P-gp; conditions: LLC-PK1
[26] = test system: MERS-CoV; conditions: cited from earlier work
[27] = test system: SARS-CoV; conditions: cited from earlier work
[28] = LLC-PK1; cited from earlier work
[29] = human, microsomes, 0.5 h; cited from earlier work
[30] = rat, microsomes, 0.5 h; cited from earlier work
[31] = test system: HCoV-229E; conditions: cited from earlier work
[32] = target: T1, P-gp; conditions: LLC-PK1; cited from earlier work
[33] = test system: SARS-CoV-2 hCoV-19/Japan/TY/WK-521 strain; conditions: read-out: HEK 293T-AT EC50; cited from earlier work
[34] = Severe acute respiratory syndrome coronavirus 2, VeroE6/TMPRSS2, read-out: EC90, 0% serum
[35] = Severe acute respiratory syndrome coronavirus 2, VeroE6/TMPRSS2, read-out: EC90, 12.5% serum
[36] = Severe acute respiratory syndrome coronavirus 2, VeroE6/TMPRSS2, read-out: EC90, 25% serum

T1 sequence (P08183 whole entry): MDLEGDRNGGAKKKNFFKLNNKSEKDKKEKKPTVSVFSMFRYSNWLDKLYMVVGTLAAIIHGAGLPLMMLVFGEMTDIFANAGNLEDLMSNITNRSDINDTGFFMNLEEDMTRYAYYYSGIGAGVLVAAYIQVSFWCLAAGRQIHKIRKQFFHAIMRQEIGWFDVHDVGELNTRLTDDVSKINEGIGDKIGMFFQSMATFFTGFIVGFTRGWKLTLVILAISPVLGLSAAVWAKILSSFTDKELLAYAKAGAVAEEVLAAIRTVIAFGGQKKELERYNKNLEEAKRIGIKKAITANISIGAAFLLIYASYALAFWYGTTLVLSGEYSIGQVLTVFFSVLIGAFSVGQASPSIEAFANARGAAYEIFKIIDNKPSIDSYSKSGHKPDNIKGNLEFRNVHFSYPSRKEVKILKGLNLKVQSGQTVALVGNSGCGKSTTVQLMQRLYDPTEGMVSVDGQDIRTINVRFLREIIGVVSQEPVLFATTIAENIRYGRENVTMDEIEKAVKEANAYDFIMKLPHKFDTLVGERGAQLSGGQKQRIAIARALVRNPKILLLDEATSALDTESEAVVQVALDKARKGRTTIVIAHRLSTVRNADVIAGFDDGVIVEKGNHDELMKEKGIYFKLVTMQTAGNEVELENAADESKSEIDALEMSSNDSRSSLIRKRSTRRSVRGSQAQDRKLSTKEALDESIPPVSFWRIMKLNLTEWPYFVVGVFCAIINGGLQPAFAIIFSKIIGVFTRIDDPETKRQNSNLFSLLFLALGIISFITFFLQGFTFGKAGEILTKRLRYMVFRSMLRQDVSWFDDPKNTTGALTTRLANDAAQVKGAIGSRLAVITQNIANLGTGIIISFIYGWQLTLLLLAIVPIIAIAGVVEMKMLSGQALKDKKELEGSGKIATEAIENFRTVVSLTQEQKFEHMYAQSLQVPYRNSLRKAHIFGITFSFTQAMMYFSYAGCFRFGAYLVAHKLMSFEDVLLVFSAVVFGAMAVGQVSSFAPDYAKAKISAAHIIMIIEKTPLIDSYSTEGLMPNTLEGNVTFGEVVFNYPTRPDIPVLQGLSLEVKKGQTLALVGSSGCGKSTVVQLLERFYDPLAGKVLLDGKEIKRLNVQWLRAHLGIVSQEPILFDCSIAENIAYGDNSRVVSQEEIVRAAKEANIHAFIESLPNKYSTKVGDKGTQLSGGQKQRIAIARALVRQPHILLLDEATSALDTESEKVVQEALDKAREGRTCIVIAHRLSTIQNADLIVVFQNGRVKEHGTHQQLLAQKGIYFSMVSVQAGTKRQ
Human Caspase 2, sequence (P42575 170-333): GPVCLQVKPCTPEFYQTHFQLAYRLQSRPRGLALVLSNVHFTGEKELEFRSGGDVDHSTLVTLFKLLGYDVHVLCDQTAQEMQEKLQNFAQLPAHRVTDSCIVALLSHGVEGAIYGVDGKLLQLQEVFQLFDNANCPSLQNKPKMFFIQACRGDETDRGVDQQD
Human Caspase 2, sequence (P42575 348-452): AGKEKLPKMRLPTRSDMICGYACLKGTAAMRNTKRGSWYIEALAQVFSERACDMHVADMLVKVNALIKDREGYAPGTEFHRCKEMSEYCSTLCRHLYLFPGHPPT

## N#CCn1c(N2CC3(C2)CC(F)(F)C3)c(-c2ccc(F)c(Cl)c2)c(=O)n(-c2cncc(Cl)c2)c1=O [Compound 17, [5-(3-Chloro-4-fluorophenyl)-3-(5-chloropyridin-3-yl)-6-(6,6-difluoro-2-azaspiro[3.3]-heptan-2-yl)-2,4-dioxo-3,4-dihydropyrimidin-1(2H)-yl]-acetonitrile]
[1]; iv
  clearance: 6.79 mL/min/kg
  half-life: 8.14 h
[1]; po, 1 umol/kg
  bioavailability: 100%
[2]; [34]
  EC90: 0.00166 ± 0.00014 µM
[2]; [35]
  EC90: 0.00198 ± 8e-05 µM
[2]; [36]
  EC90: 0.00342 ± 0.00055 µM
[2]; read-out: EC90, 12.5% serum
  EC90: 0.00243 ± 0.00032 µM
[2]; read-out: EC90, 25% serum
  EC90: 0.00276 ± 0.00066 µM
[3]
  IC50: > 10 µM
[4]
  IC50: > 10 µM
[5]
  IC50: > 10 µM
[6]
  remaining at 0.5 h: 99%
[7]
  CC50: > 100 µM
[8]
  lung virus titers: reduced lung virus titers in a dose-dependent manner; also recorded: Virus titer reduction was observed; also recorded: appeared to reach maximum efficacy
[9]
  clearance: 11.4 mL/min/kg
  half-life: 7.02 h
[10]
  EC50: 0.00248 µM
[11]
  EC50: 0.092 µM
[12]
  EC50: 0.00221 µM
[13]
  clearance: 2.52 mL/min/kg
  half-life: 24.9 h
[14]
  EC50: 0.0573 µM
[15]
  IC50: > 10 µM
[16]
  EC50: 3.57 ± 0.51 µM
[17]
  adverse effects: No adverse effects were observed
  teratogenicity: No teratogenicity was observed
[18]
  Papp A→B: 2.48 ×10⁻⁶ cm/s
  Papp B→A: 22.4 ×10⁻⁶ cm/s
[19]
  EC50: 0.00661 µM
[20]
  remaining at 0.5 h: 92%
[21]
  EC90: 0.00241 ± 0.00161 µM
[21]; in Mus musculus, read-out: protein-adjusted EC90 (PA-EC90)
  EC90: 27 nM to 28.1 nM and 0.0141 µg/mL to 0.0147 µg/mL
[22]
  LLC-PK1 P app: 6.17 × 10^–6 cm/s
[23]
  Papp A→B: 6.17 ×10⁻⁶ cm/s
  Papp B→A: 7.36 ×10⁻⁶ cm/s
[24]
  IC50: > 10 µM
[25]
  P-gp substrate assessment: P-gp substrates

## Cn1cnc(Cn2c(=O)[nH]/c(=N\c3cc4cn(C)nc4cc3Cl)n(Cc3cc(F)c(F)cc3F)c2=O)n1 [ensitrelvir]
[26]
  EC50: 1.4 µM
[27]
  EC50: 0.21 µM
[2]; [34]
  EC90: 0.118 ± 0.052 µM
[2]; [35]
  EC90: 0.367 ± 0.069 µM
[2]; [36]
  EC90: 0.608 ± 0.075 µM
[2]; Severe acute respiratory syndrome coronavirus 2, VeroE6/TMPRSS2, read-out: EC90, 50% serum
  EC90: 0.838 ± 0.191 µM
[2]; Severe acute respiratory syndrome coronavirus 2, VeroE6/TMPRSS2, read-out: EC90, 100% (Extrapolated)
  EC90: 1.59 ± 0.33 µM
[2]; read-out: EC90, 12.5% serum
  EC90: 0.218 ± 0.06 µM
[2]; read-out: EC90, 25% serum
  EC90: 0.462 ± 0.129 µM
[2]; read-out: EC90, 50% serum
  EC90: 1.56 ± 0.29 µM
[2]; read-out: EC90, 100% (Extrapolated)
  EC90: 2.92 ± 0.55 µM
[28]
  Papp Apical to Basolateral: 10.3 ± 0.3 ×10-6 cm/sec
  Papp Basolateral to Apical: 11.6 ± 0.3 ×10-6 cm/sec
[11]
  EC50: 0.142 ± 0.009 µM
[12]
  EC50: 0.0731 ± 0.0164 µM
[29]
  HLM % remained: 96/88^25%
[30]
  RLM % remained: 96/88^25%
[21]
  EC90: 0.0601 ± 0.0328 µM
[31]
  EC50: 5.5 µM
[32]
  Papp Apical to Basolateral: 2.03 ± 0.07 ×10-6 cm/sec
  Papp Basolateral to Apical: 30.2 ± 1.8 ×10-6 cm/sec
[33]
  EC50: 0.027 µM
[25]
  P-gp substrate assessment: P-gp substrates
